According to US20260356819A1, “OXOISOINDOLINYL-SUBSTITUTED […] DERIVATIVE AND USE THEREOF” (GLUETACS THERAPEUTICS (SHANGHAI) CO., LTD., priority 2023, published 2026):

How the values were obtained:
Format in all cases: cell-based
Settings in all cases: compounds at 50 nM and 500 nM
WEE1 = target: T1, WEE1 (Homo sapiens, UniProt P30291+Q96SW2); experiment: Western blot degradation of WEE1 in hPBMCs (24 h)
T1 construct: The supernatant was aspirated as the extracted total cell protein; endogenous in cells; host or cells: human peripheral blood mononuclear cells (hPBMCs)
Summary of the method: (§1)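 Compounds were tested at 50 nM and 500 nM on hPBMCs (1×10^6 cells/mL) for 24 h, alongside DMSO. Proteins were detected by Western blot after denaturation at 95 °C; remaining protein computed from normalised band grayscale.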

IKZF1 = target: T2, IKZF1 (Homo sapiens, UniProt Q13422+Q96SW2); experiment: Western blot degradation of IKZF1 in hPBMCs (24 h)
T2 construct: The supernatant was aspirated as the extracted total cell protein; endogenous in cells; host or cells: human peripheral blood mononuclear cells (hPBMCs)
Summary of the method: as §1

IKZF2 = target: T3, IKZF2 (Homo sapiens, UniProt Q96SW2+Q9UKS7); experiment: Western blot degradation of IKZF2 in hPBMCs (24 h)
T3 construct: The supernatant was aspirated as the extracted total cell protein; endogenous in cells; host or cells: human peripheral blood mononuclear cells (hPBMCs)
Summary of the method: as §1

IKZF3 = target: T4, IKZF3 (Homo sapiens, UniProt Q96SW2+Q9UKT9); experiment: Western blot degradation of IKZF3 in hPBMCs (24 h)
T4 construct: The supernatant was aspirated as the extracted total cell protein; endogenous in cells; host or cells: human peripheral blood mononuclear cells (hPBMCs)
Summary of the method: as §1

CK1α = target: T5, CK1α (Homo sapiens, UniProt P48729+Q96SW2); experiment: Western blot degradation of CK1α in hPBMCs (24 h)
T5 construct: The supernatant was aspirated as the extracted total cell protein; endogenous in cells; host or cells: human peripheral blood mononuclear cells (hPBMCs)
Summary of the method: as §1

GSPT1 = target: T6, GSPT1 (Homo sapiens, UniProt P15170+Q96SW2); experiment: Western blot degradation of GSPT1 in hPBMCs (24 h)
T6 construct: The supernatant was aspirated as the extracted total cell protein; endogenous in cells; host or cells: human peripheral blood mononuclear cells (hPBMCs)
Summary of the method: as §1

T4 sequence (Q9UKT9 whole entry): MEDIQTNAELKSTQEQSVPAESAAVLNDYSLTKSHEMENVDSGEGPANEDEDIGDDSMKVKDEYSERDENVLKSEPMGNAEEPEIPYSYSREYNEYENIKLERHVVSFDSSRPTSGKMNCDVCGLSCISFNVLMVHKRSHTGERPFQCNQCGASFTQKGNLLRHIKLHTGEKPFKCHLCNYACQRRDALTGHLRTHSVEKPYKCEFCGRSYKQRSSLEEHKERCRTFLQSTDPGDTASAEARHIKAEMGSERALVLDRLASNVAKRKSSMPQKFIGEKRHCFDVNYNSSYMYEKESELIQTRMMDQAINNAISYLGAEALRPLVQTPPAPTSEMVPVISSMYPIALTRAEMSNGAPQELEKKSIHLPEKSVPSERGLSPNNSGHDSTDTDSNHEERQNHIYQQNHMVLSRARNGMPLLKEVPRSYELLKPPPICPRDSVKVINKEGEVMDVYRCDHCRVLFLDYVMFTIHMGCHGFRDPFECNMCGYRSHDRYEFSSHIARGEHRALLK
T4 sequence (Q96SW2 whole entry): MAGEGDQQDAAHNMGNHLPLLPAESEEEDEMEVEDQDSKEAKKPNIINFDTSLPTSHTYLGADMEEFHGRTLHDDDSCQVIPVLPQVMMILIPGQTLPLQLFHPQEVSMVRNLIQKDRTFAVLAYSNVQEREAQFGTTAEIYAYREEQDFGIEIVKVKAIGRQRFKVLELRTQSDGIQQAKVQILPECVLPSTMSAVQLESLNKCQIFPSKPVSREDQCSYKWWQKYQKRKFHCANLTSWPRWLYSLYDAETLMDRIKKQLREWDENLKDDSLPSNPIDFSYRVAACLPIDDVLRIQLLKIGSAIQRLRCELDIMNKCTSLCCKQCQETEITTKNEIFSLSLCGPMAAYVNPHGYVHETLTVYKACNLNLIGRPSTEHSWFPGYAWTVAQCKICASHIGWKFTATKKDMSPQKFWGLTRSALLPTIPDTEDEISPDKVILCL
T4 sequence (Q16531 whole entry partner): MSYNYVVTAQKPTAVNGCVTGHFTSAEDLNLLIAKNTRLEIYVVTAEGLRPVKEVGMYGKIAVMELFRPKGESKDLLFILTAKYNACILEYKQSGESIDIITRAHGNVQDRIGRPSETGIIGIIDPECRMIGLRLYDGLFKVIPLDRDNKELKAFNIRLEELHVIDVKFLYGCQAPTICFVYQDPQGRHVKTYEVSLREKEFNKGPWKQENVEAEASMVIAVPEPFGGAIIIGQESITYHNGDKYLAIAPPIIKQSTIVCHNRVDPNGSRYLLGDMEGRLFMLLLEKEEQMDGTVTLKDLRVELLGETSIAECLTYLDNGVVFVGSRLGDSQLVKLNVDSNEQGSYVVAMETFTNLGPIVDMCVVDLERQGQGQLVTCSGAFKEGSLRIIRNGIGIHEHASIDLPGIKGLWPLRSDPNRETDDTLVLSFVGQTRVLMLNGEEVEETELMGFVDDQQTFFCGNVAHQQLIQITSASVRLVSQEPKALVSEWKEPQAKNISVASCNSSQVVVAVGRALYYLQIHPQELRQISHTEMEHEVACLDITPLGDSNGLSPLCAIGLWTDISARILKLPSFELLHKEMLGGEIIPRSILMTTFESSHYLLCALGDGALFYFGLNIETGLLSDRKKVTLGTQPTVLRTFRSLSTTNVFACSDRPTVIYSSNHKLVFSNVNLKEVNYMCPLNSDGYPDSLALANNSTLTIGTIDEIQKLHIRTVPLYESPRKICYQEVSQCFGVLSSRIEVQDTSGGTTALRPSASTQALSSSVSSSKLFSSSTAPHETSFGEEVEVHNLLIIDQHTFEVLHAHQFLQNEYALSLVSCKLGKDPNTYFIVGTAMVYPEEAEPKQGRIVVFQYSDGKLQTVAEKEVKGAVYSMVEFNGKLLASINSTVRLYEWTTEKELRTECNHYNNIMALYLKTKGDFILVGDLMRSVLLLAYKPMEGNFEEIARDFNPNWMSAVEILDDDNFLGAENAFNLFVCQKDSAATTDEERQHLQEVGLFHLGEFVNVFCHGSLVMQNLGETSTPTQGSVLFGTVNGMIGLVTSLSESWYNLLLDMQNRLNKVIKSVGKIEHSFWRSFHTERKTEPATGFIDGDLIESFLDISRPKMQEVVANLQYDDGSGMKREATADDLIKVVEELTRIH
T3 sequence (Q9UKS7 whole entry): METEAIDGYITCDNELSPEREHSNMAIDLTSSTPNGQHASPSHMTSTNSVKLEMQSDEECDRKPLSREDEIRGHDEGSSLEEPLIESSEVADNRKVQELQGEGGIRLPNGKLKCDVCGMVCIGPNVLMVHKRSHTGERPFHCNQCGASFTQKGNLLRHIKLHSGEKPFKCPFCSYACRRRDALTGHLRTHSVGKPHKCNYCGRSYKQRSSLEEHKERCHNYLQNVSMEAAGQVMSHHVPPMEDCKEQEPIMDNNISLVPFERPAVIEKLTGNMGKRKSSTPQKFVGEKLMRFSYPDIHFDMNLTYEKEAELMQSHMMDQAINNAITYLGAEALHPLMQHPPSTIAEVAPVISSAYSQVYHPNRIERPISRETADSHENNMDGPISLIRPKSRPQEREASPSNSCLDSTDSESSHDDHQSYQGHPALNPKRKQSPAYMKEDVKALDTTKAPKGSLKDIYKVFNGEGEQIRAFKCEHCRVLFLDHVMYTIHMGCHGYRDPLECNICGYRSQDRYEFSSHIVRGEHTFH
T3 sequence (Q96SW2 whole entry): as the sequence (Q96SW2 whole entry) above
T3 sequence (Q16531 whole entry partner): as the sequence (Q16531 whole entry partner) above
T2 sequence (Q13422 whole entry): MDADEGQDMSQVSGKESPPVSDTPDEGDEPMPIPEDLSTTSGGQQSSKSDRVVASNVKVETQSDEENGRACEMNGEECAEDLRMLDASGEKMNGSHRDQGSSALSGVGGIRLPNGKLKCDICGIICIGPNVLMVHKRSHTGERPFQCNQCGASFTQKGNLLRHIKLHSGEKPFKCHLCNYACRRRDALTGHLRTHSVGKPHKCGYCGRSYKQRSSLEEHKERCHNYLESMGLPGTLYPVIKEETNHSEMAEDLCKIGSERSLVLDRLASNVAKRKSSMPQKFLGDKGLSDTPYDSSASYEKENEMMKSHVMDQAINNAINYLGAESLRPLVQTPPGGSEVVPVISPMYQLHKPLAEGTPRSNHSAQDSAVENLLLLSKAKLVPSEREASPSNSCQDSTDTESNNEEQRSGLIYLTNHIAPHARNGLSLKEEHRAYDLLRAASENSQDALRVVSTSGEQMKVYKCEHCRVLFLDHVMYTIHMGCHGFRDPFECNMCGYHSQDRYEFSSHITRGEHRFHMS
T2 sequence (Q96SW2 whole entry): as the sequence (Q96SW2 whole entry) above
T2 sequence (Q16531 whole entry partner): as the sequence (Q16531 whole entry partner) above
T5 sequence (P48729 whole entry): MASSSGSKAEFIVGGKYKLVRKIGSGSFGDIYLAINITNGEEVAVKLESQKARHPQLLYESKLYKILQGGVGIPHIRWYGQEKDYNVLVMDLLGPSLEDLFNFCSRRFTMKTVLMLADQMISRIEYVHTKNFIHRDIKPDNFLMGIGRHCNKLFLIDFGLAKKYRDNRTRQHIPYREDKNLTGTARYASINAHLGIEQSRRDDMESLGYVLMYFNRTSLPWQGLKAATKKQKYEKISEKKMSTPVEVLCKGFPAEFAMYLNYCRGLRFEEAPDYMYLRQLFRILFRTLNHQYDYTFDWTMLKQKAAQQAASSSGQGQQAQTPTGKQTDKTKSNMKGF
T5 sequence (Q96SW2 whole entry): as the sequence (Q96SW2 whole entry) above
T5 sequence (Q16531 whole entry partner): as the sequence (Q16531 whole entry partner) above
T6 sequence (P15170 whole entry): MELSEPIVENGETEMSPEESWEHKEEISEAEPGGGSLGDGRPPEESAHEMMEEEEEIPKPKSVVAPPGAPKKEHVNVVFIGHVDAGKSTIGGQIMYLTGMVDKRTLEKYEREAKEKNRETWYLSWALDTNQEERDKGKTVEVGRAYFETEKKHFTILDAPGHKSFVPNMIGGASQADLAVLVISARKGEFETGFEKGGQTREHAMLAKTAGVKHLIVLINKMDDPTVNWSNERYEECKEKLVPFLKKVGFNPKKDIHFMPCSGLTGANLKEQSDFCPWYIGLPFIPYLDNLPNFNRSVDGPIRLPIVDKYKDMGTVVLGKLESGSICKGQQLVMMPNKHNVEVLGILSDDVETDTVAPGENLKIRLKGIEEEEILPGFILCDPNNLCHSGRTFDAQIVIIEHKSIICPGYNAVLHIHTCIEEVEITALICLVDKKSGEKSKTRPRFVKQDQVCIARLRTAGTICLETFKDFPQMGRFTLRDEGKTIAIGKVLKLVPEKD
T6 sequence (Q96SW2 whole entry): as the sequence (Q96SW2 whole entry) above
T6 sequence (Q16531 whole entry partner): as the sequence (Q16531 whole entry partner) above

O=C1CCN(N2C(=O)c3ccc(CN4C5CC4CN(C(=O)C4=C(c6ccc(F)cc6)CCCC4)C5)cc3C2=O)C(=O)N1 [GT-07377, 2-(2,4-dioxotetrahydropyrimidin-1(2H)-yl)-5-((3-(4′-fluoro-3,4,5,6-tetrahydro-[1,1′-biphenyl]-2-carbonyl)-3,6-diazabicyclo[3.1.1]heptan-6-yl)methyl)isoindoline-1,3-dione]
WEE1 substrate protein remaining % (WEE1): A (0% ≤ substrate protein remaining % ≤80%)
IKZF1 substrate protein remaining % (IKZF1): B (80%< substrate protein remaining % ≤100%)
IKZF2 substrate protein remaining % (IKZF2): A (0% ≤ substrate protein remaining % ≤80%)
IKZF3 substrate protein remaining % (IKZF3): B (80%< substrate protein remaining % ≤100%)
CK1α substrate protein remaining % (CK1α): A (0% ≤ substrate protein remaining % ≤80%)
GSPT1 substrate protein remaining % (GSPT1): A (0% ≤ substrate protein remaining % ≤80%)

O=C1CCN(N2C(=O)c3ccc(CN4CCC(c5ccsc5)CC4)cc3C2=O)C(=O)N1 [GT-07420, 2-(2,4-dioxotetrahydropyrimidin-1(2H)-yl)-5-((4-(thiophen-3-yl)piperidin-1-yl)methyl)isoindoline-1,3-dione]
WEE1 substrate protein remaining % (WEE1): B (80%< substrate protein remaining % ≤100%)
IKZF1 substrate protein remaining % (IKZF1): B (80%< substrate protein remaining % ≤100%)
IKZF2 substrate protein remaining % (IKZF2): B (80%< substrate protein remaining % ≤100%)
IKZF3 substrate protein remaining % (IKZF3): B (80%< substrate protein remaining % ≤100%)
CK1α substrate protein remaining % (CK1α): A (0% ≤ substrate protein remaining % ≤80%)
GSPT1 substrate protein remaining % (GSPT1): A (0% ≤ substrate protein remaining % ≤80%)

Cc1cc(C2CCN(Cc3ccc4c(c3)C(=O)N(N3CCC(=O)NC3=O)C4=O)CC2)cs1 [GT-07421, 2-(2,4-dioxotetrahydropyrimidin-1(2H)-yl)-5-((4-(5-methylthiophen-3-yl)piperidin-1-yl)methyl)isoindoline-1,3-dione]
WEE1 substrate protein remaining % (WEE1): B (80%< substrate protein remaining % ≤100%)
IKZF1 substrate protein remaining % (IKZF1): B (80%< substrate protein remaining % ≤100%)
IKZF2 substrate protein remaining % (IKZF2): B (80%< substrate protein remaining % ≤100%)
IKZF3 substrate protein remaining % (IKZF3): B (80%< substrate protein remaining % ≤100%)
CK1α substrate protein remaining % (CK1α): A (0% ≤ substrate protein remaining % ≤80%)
GSPT1 substrate protein remaining % (GSPT1): A (0% ≤ substrate protein remaining % ≤80%)

O=C1CCN(N2C(=O)c3ccc(CN4CCC(c5ccoc5)CC4)cc3C2=O)C(=O)N1 [GT-07422, 2-(2,4-dioxotetrahydropyrimidin-1(2H)-yl)-5-((4-(furan-3-yl)piperidin-1-yl)methyl)isoindoline-1,3-dione]
WEE1 substrate protein remaining % (WEE1): B (80%< substrate protein remaining % ≤100%)
IKZF1 substrate protein remaining % (IKZF1): B (80%< substrate protein remaining % ≤100%)
IKZF2 substrate protein remaining % (IKZF2): B (80%< substrate protein remaining % ≤100%)
IKZF3 substrate protein remaining % (IKZF3): B (80%< substrate protein remaining % ≤100%)
CK1α substrate protein remaining % (CK1α): A (0% ≤ substrate protein remaining % ≤80%)
GSPT1 substrate protein remaining % (GSPT1): A (0% ≤ substrate protein remaining % ≤80%)

Cc1cc(C2=CCN(Cc3ccc4c(c3)C(=O)N(N3CCC(=O)NC3=O)C4=O)CC2)cs1 [GT-07423, 2-(2,4-dioxotetrahydropyrimidin-1(2H)-yl)-5-((4-(5-methylthiophen-3-yl)-3,6-dihydropyridin-1(2H)-yl)methyl)isoindoline-1,3-dione]
WEE1 substrate protein remaining % (WEE1): A (0% ≤ substrate protein remaining % ≤80%)
IKZF1 substrate protein remaining % (IKZF1): B (80%< substrate protein remaining % ≤100%)
IKZF2 substrate protein remaining % (IKZF2): B (80%< substrate protein remaining % ≤100%)
IKZF3 substrate protein remaining % (IKZF3): A (0% ≤ substrate protein remaining % ≤80%)
CK1α substrate protein remaining % (CK1α): A (0% ≤ substrate protein remaining % ≤80%)
GSPT1 substrate protein remaining % (GSPT1): A (0% ≤ substrate protein remaining % ≤80%)

O=C1CCN(N2C(=O)c3ccc(CN4CCC(c5cccs5)CC4)cc3C2=O)C(=O)N1 [GT-07424, 2-(2,4-dioxotetrahydropyrimidin-1(2H)-yl)-5-((4-(thiophen-2-yl)piperidin-1-yl)methyl)isoindoline-1,3-dione]
WEE1 substrate protein remaining % (WEE1): A (0% ≤ substrate protein remaining % ≤80%)
IKZF1 substrate protein remaining % (IKZF1): A (0% ≤ substrate protein remaining % ≤80%)
IKZF2 substrate protein remaining % (IKZF2): B (80%< substrate protein remaining % ≤100%)
IKZF3 substrate protein remaining % (IKZF3): A (0% ≤ substrate protein remaining % ≤80%)
CK1α substrate protein remaining % (CK1α): B (80%< substrate protein remaining % ≤100%)
GSPT1 substrate protein remaining % (GSPT1): A (0% ≤ substrate protein remaining % ≤80%)

O=C1CCN(N2Cc3cc(CN4C[C@H]5C[C@@H]4CN5c4cccc(Cl)c4Cl)ccc3C2=O)C(=O)N1 [GT-07427, 1-(5-(((1R,4R)-5-(2,3-dichlorophenyl)-2,5-diazabicyclo[2.2.1]heptan-2-yl)methyl)-1-oxoisoindolin-2-yl)dihydropyrimidine-2,4(1H,3H)-dione]
WEE1 substrate protein remaining % (WEE1): A (0% ≤ substrate protein remaining % ≤80%)
IKZF1 substrate protein remaining % (IKZF1): A (0% ≤ substrate protein remaining % ≤80%)
IKZF2 substrate protein remaining % (IKZF2): B (80%< substrate protein remaining % ≤100%)
IKZF3 substrate protein remaining % (IKZF3): B (80%< substrate protein remaining % ≤100%)
CK1α substrate protein remaining % (CK1α): A (0% ≤ substrate protein remaining % ≤80%)
GSPT1 substrate protein remaining % (GSPT1): A (0% ≤ substrate protein remaining % ≤80%)

O=C1CCN(N2Cc3cc(CN4CC5CCC4CN5c4cccc(Cl)c4Cl)ccc3C2=O)C(=O)N1 (stereo not drawn) [GT-07428, 1-(5-((5-(2,3-dichlorophenyl)-2,5-diazabicyclo[2.2.2]octan-2-yl)methyl)-1-oxoisoindolin-2-yl)dihydropyrimidine-2,4(1H,3H)-dione]
WEE1 substrate protein remaining % (WEE1): B (80%< substrate protein remaining % ≤100%)
IKZF1 substrate protein remaining % (IKZF1): A (0% ≤ substrate protein remaining % ≤80%)
IKZF2 substrate protein remaining % (IKZF2): B (80%< substrate protein remaining % ≤100%)
IKZF3 substrate protein remaining % (IKZF3): B (80%< substrate protein remaining % ≤100%)
CK1α substrate protein remaining % (CK1α): A (0% ≤ substrate protein remaining % ≤80%)
GSPT1 substrate protein remaining % (GSPT1): A (0% ≤ substrate protein remaining % ≤80%)

O=C1CCN(N2Cc3cc(CN4CC5CCC(C4)N5c4cccc(Cl)c4Cl)ccc3C2=O)C(=O)N1 [GT-07429, 1-(5-((8-(2,3-dichlorophenyl)-3,8-diazabicyclo[3.2.1]octan-3-yl)methyl)-1-oxoisoindolin-2-yl)dihydropyrimidine-2,4(1H,3H)-dione]
WEE1 substrate protein remaining % (WEE1): B (80%< substrate protein remaining % ≤100%)
IKZF1 substrate protein remaining % (IKZF1): A (0% ≤ substrate protein remaining % ≤80%)
IKZF2 substrate protein remaining % (IKZF2): B (80%< substrate protein remaining % ≤100%)
IKZF3 substrate protein remaining % (IKZF3): B (80%< substrate protein remaining % ≤100%)
CK1α substrate protein remaining % (CK1α): B (80%< substrate protein remaining % ≤100%)
GSPT1 substrate protein remaining % (GSPT1): B (80%< substrate protein remaining % ≤100%)

O=C1CCN(N2Cc3cc(CN4C5CCC4CN(c4cccc(Cl)c4Cl)C5)ccc3C2=O)C(=O)N1 [GT-07430, 1-(5-((3-(2,3-dichlorophenyl)-3,8-diazabicyclo[3.2.1]octan-8-yl)methyl)-1-oxoisoindolin-2-yl)dihydropyrimidine-2,4(1H,3H)-dione]
WEE1 substrate protein remaining % (WEE1): B (80%< substrate protein remaining % ≤100%)
IKZF1 substrate protein remaining % (IKZF1): A (0% ≤ substrate protein remaining % ≤80%)
IKZF2 substrate protein remaining % (IKZF2): B (80%< substrate protein remaining % ≤100%)
IKZF3 substrate protein remaining % (IKZF3): B (80%< substrate protein remaining % ≤100%)
CK1α substrate protein remaining % (CK1α): A (0% ≤ substrate protein remaining % ≤80%)
GSPT1 substrate protein remaining % (GSPT1): A (0% ≤ substrate protein remaining % ≤80%)

O=C1CCN(N2Cc3cc(CN4CCCN(c5cccc(Cl)c5Cl)CC4)ccc3C2=O)C(=O)N1 [GT-07431, 1-(5-((4-(2,3-dichlorophenyl)-1,4-diazepan-1-yl)methyl)-1-oxoisoindolin-2-yl)dihydropyrimidine-2,4(1H,3H)-dione]
WEE1 substrate protein remaining % (WEE1): B (80%< substrate protein remaining % ≤100%)
IKZF1 substrate protein remaining % (IKZF1): A (0% ≤ substrate protein remaining % ≤80%)
IKZF2 substrate protein remaining % (IKZF2): B (80%< substrate protein remaining % ≤100%)
IKZF3 substrate protein remaining % (IKZF3): B (80%< substrate protein remaining % ≤100%)
CK1α substrate protein remaining % (CK1α): A (0% ≤ substrate protein remaining % ≤80%)
GSPT1 substrate protein remaining % (GSPT1): B (80%< substrate protein remaining % ≤100%)

CC1CN(C(c2ccccc2)c2ccccc2)CC(C)N1Cc1ccc2c(c1)CN(N1CCC(=O)NC1=O)C2=O (stereo not drawn) [GT-07433, 1-(5-((4-benzhydryl-2,6-dimethylpiperazin-1-yl)methyl)-1-oxoisoindolin-2-yl)dihydropyrimidine-2,4(1H,3H)-dione]
WEE1 substrate protein remaining % (WEE1): B (80%< substrate protein remaining % ≤100%)
IKZF1 substrate protein remaining % (IKZF1): B (80%< substrate protein remaining % ≤100%)
IKZF2 substrate protein remaining % (IKZF2): A (0% ≤ substrate protein remaining % ≤80%)
IKZF3 substrate protein remaining % (IKZF3): B (80%< substrate protein remaining % ≤100%)
CK1α substrate protein remaining % (CK1α): A (0% ≤ substrate protein remaining % ≤80%)
GSPT1 substrate protein remaining % (GSPT1): B (80%< substrate protein remaining % ≤100%)
